Read-outs that look alike come from different tables or passages of the source.
Key:
RARα [1] = molecular target: T1, RARα (Homo sapiens, UniProt P10276); experiment: Example 7: inhibition of RAR transactivation by ATRA, CV-1 cells; format: cell-based; set-up: host or cells: TNT-coupled reticulocyte lysate in vitro transcription-translation; settings: equal doses of AGN 193109 and ATRA (10 nM ATRA)
T1 sequence (P10276 1-462): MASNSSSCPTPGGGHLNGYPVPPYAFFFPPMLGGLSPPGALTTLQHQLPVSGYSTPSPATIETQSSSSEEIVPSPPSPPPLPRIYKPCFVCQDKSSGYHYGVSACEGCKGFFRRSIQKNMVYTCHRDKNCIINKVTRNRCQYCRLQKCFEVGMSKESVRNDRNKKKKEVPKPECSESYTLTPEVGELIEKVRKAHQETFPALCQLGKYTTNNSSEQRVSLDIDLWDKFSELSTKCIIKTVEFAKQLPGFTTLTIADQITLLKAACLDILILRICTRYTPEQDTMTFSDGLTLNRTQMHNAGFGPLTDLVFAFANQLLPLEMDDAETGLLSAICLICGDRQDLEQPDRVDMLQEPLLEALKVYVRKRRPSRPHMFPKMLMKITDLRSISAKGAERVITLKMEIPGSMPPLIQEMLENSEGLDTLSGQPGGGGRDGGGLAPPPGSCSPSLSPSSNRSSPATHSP
Procedure: Eukaryotic expression vectors pRShRAR-α (Giguere et al. Nature 330:624 (1987)), pRShRAR-β (Benbrook et al. Nature 333:669 (1988)) and pRShRAR-γ (Ishikawa et al. Mol. Endocrinol. 4:837 (1990)) were cotransfected with the Δ-MTV-Luc reporter plasmid described by Hollenberg et al. (Cell 55:899.(1988)). […] Calcium phosphate transfections were carried out exactly as described in Example 6. […] Cell lysates and luciferase activity measurements were also performed as in Example 6.

[2] = system: cervical carcinoma patients; experiment: Example 23: clinical study in cervical carcinoma patients with metastatic disease; format: in vivo, human; settings: maximum tolerated dose every other day, three months to one year
Procedure: Patients are divided into two groups. The first group is a control group while members of the second group are treated with AGN 193109. AGN 193109 is combined with a pharmaceutically acceptable excipient to produce a composition suitable for systemic administration, all according to techniques that will be familiar to one having ordinary skill in the art. The control group is administered a placebo formulation and the experimental group is administered with the formulation containing the AGN 193109 negative hormone. Dosing of patients is at the maximum tolerated dose and is performed every other day for a period of from three months to one year. The outcome of the study is quantified via measurement of disease-free survival over time.

[3] = system: RAR-γ-VP-16 with ER-RXR-α
RARα [4] = molecular target: T1, RARα; experiment: [3H]-ATRA displacement assay, baculovirus expressed receptor; format: binding; set-up: made in house; host or cells: baculovirus expression system
[5] = system: stromelysin-1 expression in primary foreskin keratinocytes; experiment: Example 21: stromelysin-1 expression in keratinocytes (RT-PCR); format: cell-based, human; settings: AGN 191183 10^−7 M or AGN 193109 10^−6 M, 24 hours
Procedure: Total RNA prepared from mock-treated and retinoid-treated keratinocytes was reverse transcribed and the resulting cDNA was PCR amplified using β-actin or stromelysin-1 oligo primers exactly as described by Nagpal et al. in J. Biol. Chem. 270:923 (1995)), the disclosure of which has been incorporated by reference. A sample (10 μl) from the PCR amplification reaction was removed after every three cycles starting from 18 cycles of PCR amplification. The sample was electrophoresed on a 2% agarose gel and detected after ethidium bromide staining.

CaSki cells = experiment: Example 18: proliferation of CaSki cells; format: cell-based; settings: 10^−6 M AGN 193109, no added retinoid agonist
Procedure: EGF was added to the retinoid treated cultures to give a final concentration of 20 ng/ml. […] The media was replaced with fresh media and each of the two retinoid compounds, as appropriate, every day. Cell numbers were determined using a COULTER counter as described above.

ECE16-1 cells = experiment: Example 17: EGF dependent proliferation of ECE16-1 cells; format: cell-based
Procedure: ECE16-1 cells were seeded at a density of 1×10^4 cells per cm^2 in complete medium containing DMEM:F12 (3:1), nonessential amino acids, 5% FBS, 5 μg/ml transferring, 2 nM of 3,3′,5 triiodothyronine (thyroid hormone or “T3”), 0.1 nNM cholera toxin, 2 mM L-glutamine, 1.8×10^−4 M adenine and 10 ng/ml EGF. Cells were allowed to attach to plates overnight and then shifted to defined medium containing DMEM:F12 (3:1), 2 mM L-glutamine, nonessential amino acids, 0.1% bovine serum albumin, 1.8×10^−4 M adenine, 5 μg/ml transferring, 2 nM T3, 50 μg/ml ascorbic acid, 100 ug/ml streptomycin, 100 units/ml penicillin and 50 μg/ml gentamicin. Defined medium (DM) was supplemented with 10 ng/ml EGF. […] After three days of treatment, cells were harvested as described by Hembree et al. in Cancer Res. 54:3160 (1994) and cell numbers determined using a COULTER counter.

RARγ = molecular target: T2, RARγ (Homo sapiens, UniProt P13631); experiment: Example 7: inhibition of RAR transactivation by ATRA, CV-1 cells; format: cell-based; settings: equal doses of AGN 193109 and ATRA (10 nM ATRA)
T2 sequence (P13631 1-454): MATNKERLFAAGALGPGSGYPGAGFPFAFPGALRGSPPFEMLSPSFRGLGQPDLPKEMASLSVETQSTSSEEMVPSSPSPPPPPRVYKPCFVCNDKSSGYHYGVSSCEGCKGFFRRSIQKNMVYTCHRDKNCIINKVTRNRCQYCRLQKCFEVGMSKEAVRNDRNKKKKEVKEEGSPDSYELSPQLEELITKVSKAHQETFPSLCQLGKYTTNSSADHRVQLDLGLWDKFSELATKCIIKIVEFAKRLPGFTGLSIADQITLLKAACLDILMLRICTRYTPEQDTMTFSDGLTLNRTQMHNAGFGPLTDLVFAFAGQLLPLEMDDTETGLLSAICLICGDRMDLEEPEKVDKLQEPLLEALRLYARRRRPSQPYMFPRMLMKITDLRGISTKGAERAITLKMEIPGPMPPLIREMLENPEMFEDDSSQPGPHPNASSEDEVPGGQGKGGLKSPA

SMILES: Cc1ccc(C2=CCC(C)(C)c3ccc(C#Cc4ccc(C(=O)O)cc4)cc32)cc1 [Compound 60, 4-[(5,6-dihydro-5,5-dimethyl-8-(4-methylphenyl)-2-naphthalenyl)ethynyl]benzoic acid]
- inhibition of luciferase activity relative to ATRA alone (RARα [1]): greater than 50%
- disease-free survival [2]: significant increase in disease-free survival
- luciferase activity readings ([3]; AGN 193109 at 10^−8−10^−6 M (maximal inhibition)): approximately 16,000 rlu
- concentration of maximal inhibition of luciferase activity ([3]; cells cotransfected with ER-RXR-α and RAR-γ-VP-16): approximately 10^−8 M
- luciferase activity of triple transfectants ([3]; no other retinoid added, 18 hours): dose dependent decrease in luciferase activity
- Kd (RARα [4]; Table 11, read-out: Kd (nM) RAR-α): 2 nM
- Kd (RARα [4]; as stated in Example 8, read-out: Kd at RAR-α): 10 nM
- stromelysin-1 mRNA expression [5]: down-regulation of stromelysin-1 mRNA levels
- proliferation (CaSki cells): inhibited proliferation of the CaSki cervical epithelial cell line
- EGF mediated proliferation (ECE16-1 cells; 1000 nM AGN 193109 alone): no effect on the EGF mediated proliferation increase
- antagonism of AGN 191183 mediated growth inhibition (ECE16-1 cells; AGN 193109 10 nM with 10 nM AGN 191183): approximately 50%
- antagonism of AGN 191183 antiproliferative effect (ECE16-1 cells; ten-fold molar excess of AGN 193109 over 10 nM AGN 191183): completely reversed the antiproliferative effect of AGN 191183
- inhibition of luciferase activity relative to ATRA alone (RARγ): greater than 50%
